Reference: publication PMC8319832, “Fine-Tuning of Alkaline Residues on the Hydrophilic Face Provides a Non-toxic Cationic α-Helical Antimicrobial Peptide Against Antibiotic-Resistant ESKAPE Pathogens” (Frontiers in Microbiology, 2021)

How the values were obtained:
Assay in all cases: Drug sensitivity, Kirby-Bauer test
Set-up in all cases: key: 'S' represents susceptibility; 'I' represents intermediate efficacy; 'R' represents resistance
E. coli 2678 = type: cell-based, Escherichia coli; settings: clinical isolate, ESBL
Experimental: (§1) The bacteria used in this study included the standard strains S. aureus ATCC29213 and ATCC25923, E. faecalis ATCC29212, E. coli ATCC25922 and ATCC35218, A. baumannii ATCC19606, K. pneumoniae ATCC700603 and P. aeruginosa ATCC27853, these strains were purchased from the China Center of Type Culture Collection (CCTCC). The antimicrobial activities of the peptides were also determined against clinically isolated strains S. aureus 4188, 9124, 1176, S. epidermidis 9092, 6943, 888, E. faecalis 901, E. faecium 898, E. coli 2678, 2687, K. pneumoniae 9126, P. aeruginosa 9014, 9042, and A. baumannii 906, 13012, 13079, 9068, these strains were acquired from Taihe Hospital, Hubei University of Medicine. The drug sensitivities of the clinical isolates to the antibiotics were determined by the Kirby-Bauer test ([Chinnambedu et al., 2020]).

E. coli 2687 = type: cell-based, Escherichia coli; settings: clinical isolate, ESBL
Experimental: as §1

P. aeruginosa 9014 = type: cell-based, Pseudomonas aeruginosa; settings: clinical isolate, CRE, MDR
Experimental: as §1

P. aeruginosa 9042 = type: cell-based, Pseudomonas aeruginosa; settings: clinical isolate
Experimental: as §1

A. baumannii 13012 = type: cell-based, Acinetobacter baumannii; settings: clinical isolate, CRE, MDR
Experimental: as §1

A. baumannii 13079 = type: cell-based, Acinetobacter baumannii; settings: clinical isolate, CRE, MDR
Experimental: as §1

A. baumannii 9068 = type: cell-based, Acinetobacter baumannii; settings: clinical isolate, CRE, MDR
Experimental: as §1

A. baumannii 906 = type: cell-based, Acinetobacter baumannii; settings: clinical isolate, CRE, MDR
Experimental: as §1

K. pneumoniae 9126 = type: cell-based, Klebsiella pneumoniae; settings: clinical isolate, CRE
Experimental: as §1

S. aureus 1176 = type: cell-based, Staphylococcus aureus; settings: clinical isolate
Experimental: as §1

S. aureus 4188 = type: cell-based, Staphylococcus aureus; settings: clinical isolate
Experimental: as §1

S. aureus 9124 = type: cell-based, Staphylococcus aureus; settings: clinical isolate, MRSA
Experimental: as §1

S. epidermidis 6943 = type: cell-based; settings: clinical isolate, MRSE
Experimental: as §1

S. epidermidis 888 = type: cell-based; settings: clinical isolate
Experimental: as §1

S. epidermidis 9092 = type: cell-based; settings: clinical isolate, MRSE
Experimental: as §1

E. faecium 898 = type: cell-based, Enterococcus faecium; settings: clinical isolate
Experimental: as §1

Q: For `NCC[C@H](O)C(=O)N[C@@H]1C[C@H](N)[C@@H](O[C@H]2O[C@H](CN)[C@@H](O)[C@H](O)[C@H]2O)[C@H](O)[C@H]1O[C@H]1O[C@H](CO)[C@@H](O)[C@H](N)[C@H]1O` [Amikacin], which “Drug sensitivity of the isolate to the antibiotic” value (shortened to “Drug sensitivity of the isolate”) (E. coli 2678) is on record?
A: S

Q: And the “Drug sensitivity of the isolate” value (E. coli 2687)?
A: S

Q: And the “Drug sensitivity of the isolate” value (P. aeruginosa 9014)?
A: S

Q: What about the “Drug sensitivity of the isolate” value (P. aeruginosa 9042) of the same compound?
A: S

Q: And the “Drug sensitivity of the isolate” value (A. baumannii 13012)?
A: R

Q: What about the “Drug sensitivity of the isolate” value (A. baumannii 13079) of the same compound?
A: R

Q: What about the “Drug sensitivity of the isolate” value (A. baumannii 9068) of the same compound?
A: R

Q: And the “Drug sensitivity of the isolate” value (A. baumannii 906)?
A: R

Q: What about the “Drug sensitivity of the isolate” value (K. pneumoniae 9126) of the same compound?
A: S

Q: Which results are given for `CC1(C)S[C@@H]2[C@H](NC(=O)[C@H](N)c3ccccc3)C(=O)N2[C@H]1C(=O)O` [Ampicillin]?
A: Drug sensitivity of the isolate to the antibiotic (E. coli 2678): R; Drug sensitivity of the isolate to the antibiotic (E. coli 2687): R; Drug sensitivity of the isolate to the antibiotic (P. aeruginosa 9014): R; Drug sensitivity of the isolate to the antibiotic (P. aeruginosa 9042): R; Drug sensitivity of the isolate to the antibiotic (K. pneumoniae 9126): R

Q: Which results are given for `CO[C@@]1(NC(=O)Cc2cccs2)C(=O)N2C(C(=O)O)=C(COC(N)=O)CS[C@@H]21` [Cefoxitin]?
A: Drug sensitivity of the isolate to the antibiotic (S. aureus 1176): R; Drug sensitivity of the isolate to the antibiotic (S. aureus 4188): R; Drug sensitivity of the isolate to the antibiotic (S. aureus 9124): R; Drug sensitivity of the isolate to the antibiotic (S. epidermidis 6943): R; Drug sensitivity of the isolate to the antibiotic (S. epidermidis 888): I; Drug sensitivity of the isolate to the antibiotic (S. epidermidis 9092): R

Q: Which “Drug sensitivity of the isolate” value (E. coli 2678) does the source give for `CC(C)(O/N=C(\C(=O)N[C@@H]1C(=O)N2C(C(=O)[O-])=C(C[n+]3ccccc3)CS[C@H]12)c1csc(N)n1)C(=O)O` [Ceftazidime] here?
A: S

Q: What about the “Drug sensitivity of the isolate” value (E. coli 2687) of the same compound?
A: R

Q: What about the “Drug sensitivity of the isolate” value (P. aeruginosa 9014) of the same compound?
A: R

Q: And the “Drug sensitivity of the isolate” value (P. aeruginosa 9042)?
A: S

Q: And the “Drug sensitivity of the isolate” value (A. baumannii 13012)?
A: R

Q: And the “Drug sensitivity of the isolate” value (A. baumannii 13079)?
A: R

Q: What about the “Drug sensitivity of the isolate” value (A. baumannii 9068) of the same compound?
A: R

Q: What about the “Drug sensitivity of the isolate” value (A. baumannii 906) of the same compound?
A: R

Q: What about the “Drug sensitivity of the isolate” value (K. pneumoniae 9126) of the same compound?
A: R

Q: Which “Drug sensitivity of the isolate” value (E. coli 2678) does the source give for `C[C@@H](O)[C@H]1C(=O)N2C(C(=O)O)=C(SCCN=CN)C[C@H]12` [Imipenem] here?
A: S

Q: And the “Drug sensitivity of the isolate” value (E. coli 2687)?
A: S

Q: What about the “Drug sensitivity of the isolate” value (P. aeruginosa 9014) of the same compound?
A: R

Q: What about the “Drug sensitivity of the isolate” value (P. aeruginosa 9042) of the same compound?
A: R

Q: What about the “Drug sensitivity of the isolate” value (A. baumannii 13012) of the same compound?
A: R

Q: What about the “Drug sensitivity of the isolate” value (A. baumannii 13079) of the same compound?
A: R

Q: And the “Drug sensitivity of the isolate” value (A. baumannii 9068)?
A: R

Q: What about the “Drug sensitivity of the isolate” value (A. baumannii 906) of the same compound?
A: R

Q: And the “Drug sensitivity of the isolate” value (K. pneumoniae 9126)?
A: R

Q: What does the source list for `C[C@H]1COc2c(N3CCN(C)CC3)c(F)cc3c(=O)c(C(=O)O)cn1c23` [Levofloxacin]?
A: Drug sensitivity of the isolate to the antibiotic (S. aureus 1176): S; Drug sensitivity of the isolate to the antibiotic (S. aureus 4188): S; Drug sensitivity of the isolate to the antibiotic (S. aureus 9124): S; Drug sensitivity of the isolate to the antibiotic (S. epidermidis 6943): I; Drug sensitivity of the isolate to the antibiotic (S. epidermidis 888): R; Drug sensitivity of the isolate to the antibiotic (S. epidermidis 9092): R; Drug sensitivity of the isolate to the antibiotic (E. faecium 898): R; Drug sensitivity of the isolate to the antibiotic (E. coli 2678): R; Drug sensitivity of the isolate to the antibiotic (E. coli 2687): R; Drug sensitivity of the isolate to the antibiotic (P. aeruginosa 9014): R; Drug sensitivity of the isolate to the antibiotic (P. aeruginosa 9042): R; Drug sensitivity of the isolate to the antibiotic (A. baumannii 13012): R; Drug sensitivity of the isolate to the antibiotic (A. baumannii 13079): R; Drug sensitivity of the isolate to the antibiotic (A. baumannii 9068): R; Drug sensitivity of the isolate to the antibiotic (A. baumannii 906): R; Drug sensitivity of the isolate to the antibiotic (K. pneumoniae 9126): S

Q: What does the source list for `C[C@@H](O)[C@H]1C(=O)N2C(C(=O)O)=C(S[C@@H]3CN[C@H](C(=O)N(C)C)C3)[C@H](C)[C@H]12` [Meropenem]?
A: Drug sensitivity of the isolate to the antibiotic (E. coli 2678): S; Drug sensitivity of the isolate to the antibiotic (E. coli 2687): S; Drug sensitivity of the isolate to the antibiotic (P. aeruginosa 9014): I; Drug sensitivity of the isolate to the antibiotic (P. aeruginosa 9042): R; Drug sensitivity of the isolate to the antibiotic (A. baumannii 13012): R; Drug sensitivity of the isolate to the antibiotic (A. baumannii 13079): R; Drug sensitivity of the isolate to the antibiotic (A. baumannii 9068): R; Drug sensitivity of the isolate to the antibiotic (A. baumannii 906): R; Drug sensitivity of the isolate to the antibiotic (K. pneumoniae 9126): S

Q: What does the source list for `Cc1onc(-c2ccccc2)c1C(=O)N[C@@H]1C(=O)N2[C@@H]1SC(C)(C)[C@@H]2C(=O)O` [Oxazocilline]?
A: Drug sensitivity of the isolate to the antibiotic (S. aureus 1176): S; Drug sensitivity of the isolate to the antibiotic (S. aureus 4188): S; Drug sensitivity of the isolate to the antibiotic (S. aureus 9124): R; Drug sensitivity of the isolate to the antibiotic (S. epidermidis 6943): R; Drug sensitivity of the isolate to the antibiotic (S. epidermidis 888): S; Drug sensitivity of the isolate to the antibiotic (S. epidermidis 9092): R

Q: How did the “Drug sensitivity of the isolate” value (S. aureus 1176) turn out when `CN(C)[C@@H]1C(O)=C(C(N)=O)C(=O)[C@@]2(O)C(O)=C3C(=O)c4c(O)cccc4[C@@](C)(O)[C@H]3C[C@@H]12` [Tetracycline] was run?
A: S

Q: What about the “Drug sensitivity of the isolate” value (S. aureus 4188) of the same compound?
A: S

Q: What about the “Drug sensitivity of the isolate” value (S. aureus 9124) of the same compound?
A: R

Q: What about the “Drug sensitivity of the isolate” value (S. epidermidis 6943) of the same compound?
A: S

Q: And the “Drug sensitivity of the isolate” value (S. epidermidis 888)?
A: R

Q: And the “Drug sensitivity of the isolate” value (S. epidermidis 9092)?
A: R

Q: What about the “Drug sensitivity of the isolate” value (E. faecium 898) of the same compound?
A: R

Q: For Piperacillin/tazobactam, which “Drug sensitivity of the isolate” value (E. coli 2678) is on record?
A: S

Q: And the “Drug sensitivity of the isolate” value (E. coli 2687)?
A: S

Q: What about the “Drug sensitivity of the isolate” value (P. aeruginosa 9014) of the same compound?
A: R

Q: And the “Drug sensitivity of the isolate” value (P. aeruginosa 9042)?
A: S

Q: And the “Drug sensitivity of the isolate” value (A. baumannii 13012)?
A: R

Q: What about the “Drug sensitivity of the isolate” value (A. baumannii 13079) of the same compound?
A: R

Q: And the “Drug sensitivity of the isolate” value (A. baumannii 9068)?
A: R

Q: What about the “Drug sensitivity of the isolate” value (A. baumannii 906) of the same compound?
A: R

Q: What about the “Drug sensitivity of the isolate” value (K. pneumoniae 9126) of the same compound?
A: S

Q: What does the source list for Ticarcillin/clavulanic acid?
A: Drug sensitivity of the isolate to the antibiotic (E. coli 2678): S; Drug sensitivity of the isolate to the antibiotic (P. aeruginosa 9014): R; Drug sensitivity of the isolate to the antibiotic (P. aeruginosa 9042): R; Drug sensitivity of the isolate to the antibiotic (A. baumannii 13012): R; Drug sensitivity of the isolate to the antibiotic (A. baumannii 13079): R; Drug sensitivity of the isolate to the antibiotic (A. baumannii 9068): R; Drug sensitivity of the isolate to the antibiotic (A. baumannii 906): R; Drug sensitivity of the isolate to the antibiotic (K. pneumoniae 9126): S
